Reference: US4863904A, “Dipeptides as renin inhibitors” (priority 1984, dated 1989)
pIC50: −log10 of the molar value. Like-named read-outs stand apart in the source and are kept apart here.

Key:
common marmosets = assay: Depressive effect in marmosets (blood pressure of conscious marmosets in a high renin state); format: in vivo; conditions: 100 mg/kg orally, conscious furosemide-treated common marmoset
Procedure: The experiment was carried out by using common marmosets as described in K. G. Hofbauer et al., Clinical and Experimental Hypertension-Theory and Practice, Vol A5, Nos 7 & 8 (1983), pages 1237-1247.
Furosemide was orally administered three times to common marmosets at 15 mg per kilogram per day every other day to create a high renin state. The operation was performed according to the method used by K. G. Hofbauer et al., and blood pressure of conscious marmosets was measured 2 days after the last administration of furosemide.
Male common marmosets weighing 350 g and 280 g were lightly anesthetized by Ketamine hydrochloride (Ketalar®, 10 to 20 mg/kg i.m.), and their femoral artery and vein was exposed. Catheters being filled with a heparin solution was subcutaneously inserted into the femoral vein and the femoral artery from the tail. After suturing of the opened part, the marmosets were placed on a heated mat. After complete recovery from the anesthesia, a dipeptide of the present invention (100 mg/kg) was orally administered through a soft catheter.
The arterial catheter was connected to a pressure transducer and blood pressure was recorded on the polygraph.

human renin = molecular target: T1, human renin (Homo sapiens, UniProt P00797); assay: Human renin-sheep renin substrate reaction system in vitro; format: biochemical; conditions: purified human renin, semipurified sheep renin substrate, pH 7.4, 37° C., 15 minutes, angiotensin I by radioimmunoassay
T1 sequence (P00797 67-406): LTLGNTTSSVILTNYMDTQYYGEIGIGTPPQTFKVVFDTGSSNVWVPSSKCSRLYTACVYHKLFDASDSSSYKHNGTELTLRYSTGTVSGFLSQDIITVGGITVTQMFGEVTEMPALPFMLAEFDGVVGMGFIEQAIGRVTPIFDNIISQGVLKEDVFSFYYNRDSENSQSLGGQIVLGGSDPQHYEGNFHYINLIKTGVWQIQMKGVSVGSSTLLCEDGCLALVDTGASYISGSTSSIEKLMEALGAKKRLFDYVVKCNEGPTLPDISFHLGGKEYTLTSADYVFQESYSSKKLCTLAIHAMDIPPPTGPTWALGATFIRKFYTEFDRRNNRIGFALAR
Procedure: The mixture was incubated for 15 minutes on a water bath at 37° C., and the reaction mixture was allowed to stand for 5 minutes on a water bath at 100° C. to stop the reaction. After cooling, 200 μl of the solution was taken up and the amount of angiotensin I produced by the addition of renin was determined by radioimmunoassay. The inhibitory effect was calculated by the following equation. [formula]
As a control, the same procedure as above was carried out by using 50 μl of dimethyl sulfoxide alone in place of the 50 μl of dimethyl sulfoxide solution containing a dipeptide of the present invention.

[1] = read-out: IC50 (molar concentration)

Row | pIC50 (human renin; [1]) | SMILES | further results
1 |  | CC(C)C[C@@H](C=O)NC(=O)[C@H](Cc1c[nH]cn1)NC(=O)C(CC(=O)NCCc1ccccc1)Cc1cccc2ccccc12 (stereo partly drawn) [N-[2-(1-Naphthylmethyl)-3-(phenethylcarbamoyl)propionyl]-L-histidyl-L-leucinal] | Blood pressure (mm Hg) (common marmosets; 60 min. after administration): 98.2 mm Hg; Blood pressure (mm Hg) (common marmosets; 120 min. after administration): 88.0 mm Hg; Blood pressure (mm Hg) (common marmosets; 180 min. after administration): 87.6 mm Hg; Blood pressure (mm Hg) (common marmosets; 300 min. after administration): 96.5 mm Hg; Blood pressure (mm Hg) (common marmosets; 420 min. after administration): 101.2 mm Hg
2 | 5.42 | CC(C)C[C@@H](C=O)NC(=O)[C@H](Cc1c[nH]cn1)NC(=O)C(=Cc1ccccc1)CC(=O)NCc1cccc2ccccc12 [N-[2-Benzylidene-3-(1-naphthylmethylcarbamoyl)propionyl]-L-histidyl-L-leucinal] | 
3 | 4.19 | CC(C)C[C@@H](CO)NC(=O)[C@H](Cc1c[nH]cn1)NC(=O)C(CC(=O)Nc1ccccc1)Cc1cccc2ccccc12 (single isomer, unassigned) [N-[2-(1-Naphthylmethyl)-3-(phenylcarbamoyl)propionyl]-L-histidyl-L-leucinol(isomer A)] | 
4 | 7.12 | CC(C)C[C@@H](C=O)NC(=O)[C@H](Cc1c[nH]cn1)NC(=O)C(CCOCCc1ccccc1)Cc1cccc2ccccc12 (mixture of isomers) [N-[(±)-2-(1-Naphthylmethyl)-4-phenethoxybutyryl]-L-histidyl-L-leucinal] | 
5 | 4.72 | CC(C)C[C@@H](CO)NC(=O)[C@H](Cc1c[nH]cn1)NC(=O)C(CC(=O)NCc1ccccc1)Cc1cccc2ccccc12 (single isomer, unassigned) [N-[3-(Benzylcarbamoyl)-2-(1-naphthylmethyl)propionyl]-L-histidyl-L-leucinol(isomer A)] | 
6 | 5.96 | CC(C)C[C@@H](C=O)NC(=O)[C@H](Cc1c[nH]cn1)NC(=O)C(Cc1ccccc1)Cc1ccccc1 [N-(2-Benzyl-3-phenylpropionyl)-L-histidyl-L-leucinal] | 
7 | 5.09 | CC(C)C[C@@H](C=O)NC(=O)[C@H](Cc1c[nH]cn1)NC(=O)C(Cc1ccccc1)C(=O)NCc1cccc2ccccc12 (mixture of isomers) [N-[(±)-2-(1-Naphthylmethylcarbamoyl)-3-phenylpropionyl]-L-histidyl-L-leucinal] | 
8 |  | CC(C)C[C@@H](CO)NC(=O)[C@H](Cc1c[nH]cn1)NC(=O)C(CC(=O)NCCc1ccccc1)Cc1cccc2ccccc12 (stereo partly drawn) [N-[2-(1-Naphthylmethyl)-3-(phenethylcarbamoyl)propionyl]-L-histidyl-L-leucinol] | Blood pressure (mm Hg) (common marmosets; 60 min. after administration): 97.7 mm Hg; Blood pressure (mm Hg) (common marmosets; 120 min. after administration): 89.5 mm Hg; Blood pressure (mm Hg) (common marmosets; 180 min. after administration): 95.3 mm Hg; Blood pressure (mm Hg) (common marmosets; 300 min. after administration): 97.4 mm Hg; Blood pressure (mm Hg) (common marmosets; 420 min. after administration): 99.0 mm Hg
9 | 4.12 | CC(C)C[C@@H](CO)NC(=O)[C@H](Cc1c[nH]cn1)NC(=O)C(CCCCc1ccccc1)Oc1cccc2ccccc12 (mixture of isomers) [N-[(±)-2-(1-Naphthoxy)-6-phenylhexanoyl]-L-histidyl-L-leucinol] | 
10 |  | CC(C)C[C@@H](CO)NC(=O)[C@H](Cc1c[nH]cn1)NC(=O)C(CCCC(=O)c1ccccc1)Cc1cccc2ccccc12 (mixture of isomers) | pIC50 (human renin; IC50 (molar concentration)): 4.89
11 | 5.14 | CC(C)C[C@@H](C=O)NC(=O)[C@H](Cc1c[nH]cn1)NC(=O)C(CC(=O)NCc1cccc2ccccc12)Cc1ccccc1 (mixture of isomers) [N-[(±)-2-Benzyl-3-(1-naphthylmethylcarbamoyl)propionyl]-L-histidyl-L-leucinal] | 
12 | 6.36 | CC(C)C[C@@H](C=O)NC(=O)[C@H](Cc1c[nH]cn1)NC(=O)C(CC=CC=Cc1ccccc1)Cc1cccc2ccccc12 (mixture of isomers) [N-[(±)-2-(1-Naphthylmethyl)-7-phenyl-4,6-heptadienoyl]-L-histidyl-L-leucinal] | 
13 | 7.39 | CC(C)C[C@@H](C=O)NC(=O)[C@H](Cc1c[nH]cn1)NC(=O)C(CC(=O)NCCc1ccccc1)Cc1cccc2ccccc12 (single isomer, unassigned) [N-[2-(1-naphthylmethyl)-3-(phenethylcarbamoyl)propionyl]-L-histidyl-L-leucinal (isomer A)] | 
14 | 4.33 | CC(C)C[C@@H](CO)NC(=O)[C@H](Cc1c[nH]cn1)NC(=O)C(CNCCCc1ccccc1)Cc1cccc2ccccc12 (single isomer, unassigned) [N-[2-(1-naphthylmethyl)-3-(3-phenylpropylamino)propionyl]-L-histidyl-L-leucinol (isomer A)] | 
